The record followed here is patent US20080287374A1, “BREAST CANCER-RESISTANT PROTEIN INHIBITOR” (KABUSHIKI KAISHA YAKULT HONSHA, priority 2003, published 2008).

Converted amounts (≈) assume the structure as drawn.

The subject of assay [1] is A549/SN-38-4 cell line. In words: Effect of flavonoid in overcoming anticancer drug (SN-38) resistance of A549/SN-38 cell line. The class given is cell-based, human. The conditions noted are these: Homo sapiens; concentration of flavonoid for 50% reduction of relative resistance value to SN-38; A549/SN-38-4, 48 hours. As for the experimental part:
The A549 cell line or the A549/SN-38-4 cell line was suspended in 10% FBS/Ham's F-12, and the resultant suspension was inoculated into a 96-well microplate, followed by culturing at 5% CO2 and 37° C. overnight (2×10^3 cells/50 μL/well). Thereafter, a solution of a flavonoid and SN-38 in 10% FBS/Ham's F-12 (25 μL) was added to each of the wells, followed by culturing at 5% CO2 and 37° C. for 48 hours. After completion of culturing, the number of viable cells was counted by use of TetraColor ONE according to the attached instruction manual.

For a further assay, the system named is MES-SA/Dx5 cell line. In words: Effect of flavonoid on multidrug (paclitaxel) resistance of MES-SA/Dx5 cell line. The following applies: Homo sapiens; concentration of flavonoid for 50% reduction of relative resistance value to paclitaxel; MES-SA/Dx5 (P-glycoprotein overexpression), 48 hours; read-out: Resistance overcoming effect EC50. It is filed as cell-based, human. As for the experimental part:
Human uterine cancer MES-SA cell line or MES-SA/Dx5 cell line which had acquired multidrug resistance through overexpression of P-glycoprotein (Cancer Res. 45, 4091-4096 (1985)) was suspended in 10% FBS/DMEM, and the resultant suspension was inoculated into a 96-well microplate, followed by culturing at 5% CO2 and 37° C. overnight (3×10^3 cells/50 μL/well). Thereafter, a solution of a flavonoid and paclitaxel in 10% FBS/DMEM (25 μL) was added to each of the wells, followed by culturing at 5% CO2 and 37° C. for 48 hours. After completion of culturing, the number of viable cells was counted by use of TetraColor ONE according to the attached instruction manual.

In the next assay the test system is P388/BCRP cell line. The assay can be described thus: Effect of flavonoid in overcoming anticancer drug resistance in vivo (survival of tumor-implanted mice). Also on record: species or system mouse. The following applies: compound 100 mg/kg/day + CPT-11 20 mg/kg/day, intraperitoneally once a day, days 1 to 10; CDF1 mice. As for the experimental part:
Groups of six-week-old female CDF1 mice, each group consisting of 5 mice, were employed. The P388 cell line or the P388/BCRP cell line (1×10^6 cells) was implanted into the peritoneal cavity of each of the mice. […] Merely the solvent was administered to mice in the control group. In order to evaluate the antitumor effect of the flavonoid, survival rate T/C (%) was calculated from the survival days of the tumor-implanted mice by use of the following formula.
Survival rate T/C (%)=(the mean survival days of mice in the treated flavonoid group)÷(the mean survival days of mice in the control group)×100

In assay [2] the test system is A549/SN-38-4 cell line. In words: Amount of anticancer drug accumulated in A549/SN-38 cell line. It is filed as cell-based, human. The following applies: both the A549 cell line and the A549/SN-38-4 cell line; SN-38 300 ng/mL, 60 minutes. As for the experimental part:
The A549 cell line or the A549/SN-38-4 cell line (4×10^6 cells/mL) was suspended in 10% FBS/RPMI1640 (1 mL), and an SN-38 DMSO solution (1 μL, final concentration: 300 ng/mL) was added to the resultant suspension, followed by incubation at 37° C. for 60 minutes. Thereafter, centrifugation was performed (2° C., 1,400×g, 1 min), and the resultant supernatant was removed. Ice-cooled PBS was added to the thus-precipitated cells, and the cells were resuspended therein, followed by centrifugation (2° C., 1,400×g, 1 min) for washing of the cells. This washing procedure was performed again, followed by addition of PBS (375 μL) and sonication of the cells. To the resultant destructed cells, methanol (375 μL) and 10% zinc sulfate solution (15 μL) were added, and the resultant mixture was stirred, followed by centrifugation (2° C., 12,500×g, 5 min) and collection of the supernatant. The thus-collected supernatant was dispensed in a white 96-well microplate for fluorescence intensity measurement (200 μL/well), and then the amounts of SN-38 and an SN-38-glucuronide contained in the supernatant were measured by use of a microplate fluorometer [SPECTRA max GEMINI XS (trade name), product of Molecular Devices] […]

Assay [3] has as its system A549/SN-38-4 cell line. The assay can be described thus: Anticancer drug sensitivity test, A549/SN-38-4. It is filed as cell-based, human. The conditions noted are these: stated for the A549/SN-38 cell lines; FIG. 1 shows A549/SN-38-4. As for the experimental part:
Human non-small cell lung cancer A549 cell line was subcultured at 5% CO2 and 37° C. by use of a Ham's F-12 medium containing 10% FBS, 100 U/mL of penicillin, and 100 μg/mL of streptomycin (10% FBS/Ham's F-12). SN-38-resistant A549 cell lines were selected by subculturing the A549 cell line in a medium for two months while the concentration of SN-38 contained in the medium was increased in a stepwise manner (4 to 10 ng/mL). Subsequently, the resultant SN-38-resistant A549 cell lines were subjected to cloning by means of limiting dilution, to thereby establish six cloned SN-38-resistant A549 cell lines (A549/SN-38-1 to 6).
Thereafter, a solution of an anticancer drug in 10% FBS/Ham's F-12 (50 μL) was added to each of the wells, followed by culturing at 5% CO2 and 37° C. for 48 hours. After completion of culturing, the number of viable cells was counted by use of a viable cell counting reagent [TetraColor ONE (trade name), product of Seikagaku Corporation] according to the attached instruction manual. […] “Relative resistance value” is obtained by dividing the IC50 for an A549/SN-38 cell line by the IC50 for the A549 cell line. The greater the relative resistance value, the higher the level of acquired resistance.

`COc1ccc2c(=O)cc(-c3ccc(OC)c(OC)c3)oc2c1` [Compound 1-14, 3′,4′,7-Trimethoxyflavone]: the response with A549/SN-38-4 cell line [1] was half-maximal at 0.0078 µg/mL (≈ 0.025 µM) (EC50). In addition, in the assay on MES-SA/Dx5 cell line, the half-maximal effective concentration (EC50) is > 1 µg/mL. In the assay with P388/BCRP cell line, the “Survival days Mean ± S.D.” value was 18.4 ± 4.5 days and the “Survival rate T/C” value amounted to 153%.

Regarding `CCc1c2c(nc3ccc(O[C@@H]4O[C@H](C(=O)O)[C@@H](O)[C@H](O)[C@H]4O)cc13)-c1cc3c(c(=O)n1C2)COC(=O)[C@]3(O)CC` [SN-38-glucuronide], the “SN-38-glucuronide detected in cells” value with A549/SN-38-4 cell line [2] is “virtually no SN-38-glucuronide was detected”.

On to `O=C1c2c(O)ccc(O)c2C(=O)c2c(NCCNCCO)ccc(NCCNCCO)c21` [mitoxantrone], for which, in the assay with A549/SN-38-4 cell line [3], the “Resistance of the A549/SN-38 cell lines to the drug (in words)” value was “particularly strong resistance”.

As to `COc1cc2oc(-c3ccccc3)cc(=O)c2cc1OC` [Compound 1-15, 6,7-Dimethoxyflavone], the EC50 in the assay on A549/SN-38-4 cell line [1] is 0.16 µg/mL (≈ 0.567 µM); with MES-SA/Dx5 cell line, > 1 µg/mL. In the assay on P388/BCRP cell line, the “Survival days Mean ± S.D.” value was 18.2 ± 3.9 days. For the same compound, the “Survival rate T/C” value with P388/BCRP cell line is recorded as 152%.

`COc1ccc(/C=C/C(=O)c2ccc(O)cc2O)cc1OC` [Compound 3-5, 2′,4′-Dihydroxy-3,4-dimethoxychalcone]: a half-maximal response with A549/SN-38-4 cell line [1] (EC50) required 0.04 µg/mL (≈ 0.133 µM). Further, in the assay on MES-SA/Dx5 cell line, the EC50 is > 1 µg/mL. For the same compound, in the assay on P388/BCRP cell line, the “Survival days Mean ± S.D.” value is recorded as 18.4 ± 0.5 days and the “Survival rate T/C” value was 153%.

In the case of `COc1cc(/C=C/C(=O)c2cc(Br)cc(Cl)c2O)cc(OC)c1OC` [Compound 3-7, 5′-Bromo-3′-chloro-2′-hydroxy-3,4,5-trimethoxychalcone], the values for the EC50 with A549/SN-38-4 cell line [1] and in the assay with MES-SA/Dx5 cell line were 0.65 µg/mL (≈ 1.52 µM) and > 1 µg/mL, respectively.

Consider `COc1ccc(-c2cc(=O)c3ccccc3o2)cc1OC` [Compound 1-4, 3′,4′-Dimethoxyflavone], for which the EC50 with A549/SN-38-4 cell line [1] is 0.03 µg/mL (≈ 0.106 µM); in the assay with MES-SA/Dx5 cell line it was > 1 µg/mL.

Take `CCc1c2c(nc3ccc(O)cc13)-c1cc3c(c(=O)n1C2)COC(=O)[C@]3(O)CC` [SN-38]: the “Resistance of the A549/SN-38 cell lines to the drug (in words)” value in the assay with A549/SN-38-4 cell line [3] is recorded as “particularly strong resistance”.

For the compound `COc1cc(O)c2c(=O)cc(-c3ccc(O)cc3)oc2c1` [Compound 1-1, 5,4′-Dihydroxy-7-methoxyflavone], the figures for the EC50 in the assay with A549/SN-38-4 cell line [1] and with MES-SA/Dx5 cell line were 0.017 µg/mL (≈ 0.0598 µM) and > 1 µg/mL, respectively.

The term EC50 denotes the concentration giving half of the maximal effect.
